Measured values reported in patent US20240425517A1, “NOVEL COMPOUND FOR DEGRADATION OF TARGET PROTEIN OR POLYPEPTIDE BY POLYUBIQUITINATION” (PRAZER THERAPEUTICS INC., priority 2021, published 2024).

Target: T1, BRD4 proteins (Homo sapiens, UniProt O60885)
T1 construct: endogenous in cells; host or cells: MM.1S
Assay: Degradation of BRD4 protein in MM.1S cell lines (Western blot densitometry)
Format: cell-based
Conditions: MM.1S cells, 10 μM, 24 hours
Description: To confirm that the compounds (BRD4 degraders) of Preparation Examples I′ to IV′ reduce the amount of BRD4 proteins, experiments were performed using MM.1S cell lines, which are B cells derived from the blood of multiple myeloma patients.
Specifically, the MM.1S cells were cultured in RPMI-1640 medium supplemented with 10% fetal bovine serum and Penicillin/Streptomycin (100 U/mL), transferred to a 6-well plate, and after 24 hours, the BRD4 degraders were diluted in the culture medium and the cells were treated with 10 μM each. After treatment, the cells were incubated in a C02 incubator for 24 hours. Through protein immunoblotting (Western Blot), the degrading capacity of each compound against BRD4 proteins in cells was confirmed. After cell culture was completed according to the experimental conditions, the cells were collected and centrifuged at 1,800 rpm for 3 minutes. The cells in the precipitate were lysed with RIPA (25 mM Tris-HCl pH 7.6, 150 mM NaCl, 1% NP-40, 1% sodium deoxycholate, 0.1% SDS, 1× Protease Inhibitor Cocktail), 5× sample buffer was added, and then heated at 100° C. for 15 minutes. The prepared sample was electrophoresed with sodium dodecyl sulfate poly acrylamide gel electrophoresis (SDS-PAGE), and then the proteins in the gel were transferred to a PVDF membrane using Trans-Blot Turbo. The membrane was treated with a 5% bovine serum albumin (BSA) solution and blocked at room temperature for 2 hours, and then BRD4 and R-actin antibodies were diluted in the 5% BSA solution to react with the membrane at 4° C. overnight. After washed with PBST (0.5% Tween20) 5 times, horse radish peroxidase (HRP)-conjugated secondary antibodies were diluted in PBST to react at room temperature for 2 hours, and then washed again with a PBST solution 5 times. After enzyme-substrate reaction was carried out using a HRP substrate, a signal was measured with chemi-doc equipment, and the densitometry of a band corresponding to the BRD4 protein detected in the Preparation Example Compounds was quantitatively analyzed. The case when the degrading capacity of each BRD4 degrader was reduced by less than 40% is indicated as +, the case when the degrading capacity was reduced by 40% to 70% (exclusive of 70) is indicated as ++, the case when the degrading capacity was reduced by 70% or more is indicated as +++ in Tables 16 to 19 below. As shown in the following Tables, it was confirmed that the compounds of Preparation Examples I′ to IV′ according to the present invention have excellent degrading capacity.

Structure (SMILES) | BRD4 degrading capacity (%)
CCOC(=O)c1ccc(NC(=O)CCCNC(=O)C[C@@H]2N=C(c3ccc(Cl)cc3)c3c(sc(C)c3C)-n3c(C)nnc32)cc1C#CCN.Cl [5-1′, ethyl (S)-2-(3-aminoprop-1-yn-1-yl)-4-(4-(2-(4-(4-chlorophenyl)-2,3,9-trimethyl-6H-thieno[3,2-f][1,2,4]triazolo[4,3-a][1,4]diazepin-6-yl)acetamido)butanamido)benzoate hydrochloride] | +++ (the degrading capacity was reduced by 70% or more)
Cc1sc2c(c1C)C(c1ccc(Cl)cc1)=N[C@@H](CC(=O)NCCCC(=O)Nc1ccc(C(=O)OC(C)C)c(C#CCN)c1)c1nnc(C)n1-2.Cl [5-2′, isopropyl (S)-2-(3-aminoprop-1-yn-1-yl)-4-(4-(2-(4-(4-chlorophenyl)-2,3,9-trimethyl-6H-thieno[3,2-f][1,2,4]triazolo[4,3-a][1,4]diazepin-6-yl)acetamido)butanamido)benzoate hydrochloride] | ++ (the degrading capacity was reduced by 40% to 70% (exclusive of 70))
COC(=O)c1ccc(NC(=O)CCNC(=O)C[C@@H]2N=C(c3ccc(Cl)cc3)c3c(sc(C)c3C)-n3c(C)nnc32)cc1C#CCN.Cl [5-4′, methyl (S)-2-(3-aminoprop-1-yn-1-yl)-4-(3-(2-(4-(4-chlorophenyl)-2,3,9-trimethyl-6H-thieno[3,2-f][1,2,4]triazolo[4,3-a][1,4]diazepin-6-yl)acetamido)propanamido)benzoate hydrochloride] | ++ (the degrading capacity was reduced by 40% to 70% (exclusive of 70))
COC(=O)c1ccc(NC(=O)CCCCNC(=O)C[C@@H]2N=C(c3ccc(Cl)cc3)c3c(sc(C)c3C)-n3c(C)nnc32)cc1C#CCN.Cl [5-5′, methyl (S)-2-(3-aminoprop-1-yn-1-yl)-4-(5-(2-(4-(4-chlorophenyl)-2,3,9-trimethyl-6H-thieno[3,2-f][1,2,4]triazolo[4,3-a][1,4]diazepin-6-yl)acetamido)pentanamido)benzoate hydrochloride] | ++ (the degrading capacity was reduced by 40% to 70% (exclusive of 70))
COC(=O)c1ccc(NC(=O)CCCCCNC(=O)C[C@@H]2N=C(c3ccc(Cl)cc3)c3c(sc(C)c3C)-n3c(C)nnc32)cc1C#CCN.Cl [5-6′, methyl (S)-2-(3-aminoprop-1-yn-1-yl)-4-(6-(2-(4-(4-chlorophenyl)-2,3,9-trimethyl-6H-thieno[3,2-f][1,2,4]triazolo[4,3-a][1,4]diazepin-6-yl)acetamido)hexanamido)benzoate hydrochloride] | ++ (the degrading capacity was reduced by 40% to 70% (exclusive of 70))
COC(=O)c1ccc(N2CCN(C(=O)C[C@@H]3N=C(c4ccc(Cl)cc4)c4c(sc(C)c4C)-n4c(C)nnc43)CC2)cc1C#CCN.Cl [5-7′, methyl (S)-2-(3-aminoprop-1-yn-1-yl)-4-(4-(2-(4-(4-chlorophenyl)-2,3,9-trimethyl-6H-thieno[3,2-f][1,2,4]triazolo[4,3-a][1,4]diazepin-6-yl)acetyl)piperazin-1-yl)benzoate hydrochloride] | + (the degrading capacity of each BRD4 degrader was reduced by less than 40%)
Cc1sc2c(c1C)C(c1ccc(Cl)cc1)=N[C@@H](CC(=O)NCCCC(=O)Nc1ccc(C#CCN)c(CO)c1)c1nnc(C)n1-2.Cl [5-8′, (S)—N-(4-(3-aminoprop-1-yn-1-yl)-3-(hydroxymethyl)phenyl)-4-(2-(4-(4-chlorophenyl)-2,3,9-trimethyl-6H-thieno[3,2-f][1,2,4]triazolo[4,3-a][1,4]diazepin-6-yl)acetamido)butanamide hydrochloride] | ++ (the degrading capacity was reduced by 40% to 70% (exclusive of 70))
Cc1sc2c(c1C)C(c1ccc(Cl)cc1)=N[C@@H](CC(=O)NCCCCC(=O)Nc1ccc(C#CCN)c(CO)c1)c1nnc(C)n1-2.Cl [5-9′, (S)—N-(4-(3-aminoprop-1-yn-1-yl)-3-(hydroxymethyl)phenyl)-5-(2-(4-(4-chlorophenyl)-2,3,9-trimethyl-6H-thieno[3,2-f][1,2,4]triazolo[4,3-a][1,4]diazepin-6-yl)acetamido)pentanamide hydrochloride] | ++ (the degrading capacity was reduced by 40% to 70% (exclusive of 70))
COC(=O)c1ccc(OCCCCNC(=O)C[C@@H]2N=C(c3ccc(Cl)cc3)c3c(sc(C)c3C)-n3c(C)nnc32)cc1C#CCN.Cl [5-12′, methyl (S)-2-(3-aminoprop-1-yn-1-yl)-4-(4-(2-(4-(4-chlorophenyl)-2,3,9-trimethyl-6H-thieno[3,2-f][1,2,4]triazolo[4,3-a][1,4]diazepin-6-yl)acetamido)butoxy)benzoate hydrochloride] | +++ (the degrading capacity was reduced by 70% or more)
COC(=O)c1ccc(C(=O)NCCCNC(=O)C[C@@H]2N=C(c3ccc(Cl)cc3)c3c(sc(C)c3C)-n3c(C)nnc32)cc1C#CCN.Cl [5-18′, methyl (S)-2-(3-aminoprop-1-yn-1-yl)-4-((3-(2-(4-(4-chlorophenyl)-2,3,9-trimethyl-6H-thieno[3,2-f][1,2,4]triazolo[4,3-a][1,4]diazepin-6-yl)acetamido)propyl)carbamoyl)benzoate hydrochloride] | +++ (the degrading capacity was reduced by 70% or more)
COC(=O)c1ccc(C(=O)NC2CCN(C(=O)C[C@@H]3N=C(c4ccc(Cl)cc4)c4c(sc(C)c4C)-n4c(C)nnc43)CC2)cc1C#CCN.Cl [5-22′, methyl (S)-2-(3-aminoprop-1-yn-1-yl)-4-((1-(2-(4-(4-chlorophenyl)-2,3,9-trimethyl-6H-thieno[3,2-f][1,2,4]triazolo[4,3-a][1,4]diazepin-6-yl)acetyl)piperidin-4-yl)carbamoyl)benzoate hydrochloride] | +++ (the degrading capacity was reduced by 70% or more)
COC(=O)c1ccc(NC(=O)C2CCN(C(=O)C[C@@H]3N=C(c4ccc(Cl)cc4)c4c(sc(C)c4C)-n4c(C)nnc43)CC2)cc1C#CCN.Cl [5-23′, methyl (S)-2-(3-aminoprop-1-yn-1-yl)-4-(1-(2-(4-(4-chlorophenyl)-2,3,9-trimethyl-6H-thieno[3,2-f][1,2,4]triazolo[4,3-a][1,4]diazepin-6-yl)acetyl)piperidine-4-carboxamido)benzoate hydrochloride] | +++ (the degrading capacity was reduced by 70% or more)
COC(=O)c1ccc(NC(=O)CCNC(=O)C2CCN(C(=O)C[C@@H]3N=C(c4ccc(Cl)cc4)c4c(sc(C)c4C)-n4c(C)nnc43)CC2)cc1C#CCN.Cl [5-25′, methyl (S)-2-(3-aminoprop-1-yn-1-yl)-4-(3-(1-(2-(4-(4-chlorophenyl)-2,3,9-trimethyl-6H-thieno[3,2-f][1,2,4]triazolo[4,3-a][1,4]diazepin-6-yl)acetyl)piperidine-4-carboxamido)propanamido)benzoate hydrochloride] | +++ (the degrading capacity was reduced by 70% or more)
COC(=O)c1ccc(NC(=O)CCCNC(=O)C2CCN(C(=O)C[C@@H]3N=C(c4ccc(Cl)cc4)c4c(sc(C)c4C)-n4c(C)nnc43)CC2)cc1C#CCN.Cl [5-26′, methyl (S)-2-(3-aminoprop-1-yn-1-yl)-4-(4-(1-(2-(4-(4-chlorophenyl)-2,3,9-trimethyl-6H-thieno[3,2-f][1,2,4]triazolo[4,3-a][1,4]diazepin-6-yl)acetyl)piperidine-4-carboxamido)butanamido)benzoate hydrochloride] | ++ (the degrading capacity was reduced by 40% to 70% (exclusive of 70))
COC(=O)c1ccc(C(=O)NCCCNC(=O)C2CCN(C(=O)C[C@@H]3N=C(c4ccc(Cl)cc4)c4c(sc(C)c4C)-n4c(C)nnc43)CC2)cc1C#CCN.Cl [5-27′, methyl (S)-2-(3-aminoprop-1-yn-1-yl)-4-((3-(1-(2-(4-(4-chlorophenyl)-2,3,9-trimethyl-6H-thieno[3,2-f][1,2,4]triazolo[4,3-a][1,4]diazepin-6-yl)acetyl)piperidine-4-carboxamido)propyl)carbamoyl)benzoate hydrochloride] | ++ (the degrading capacity was reduced by 40% to 70% (exclusive of 70))
COC(=O)c1ccc(C#CCNC(=O)C2CCN(C(=O)C[C@@H]3N=C(c4ccc(Cl)cc4)c4c(sc(C)c4C)-n4c(C)nnc43)CC2)cc1C#CCN.Cl [5-28′, methyl (S)-2-(3-aminoprop-1-yn-1-yl)-4-(3-(1-(2-(4-(4-chlorophenyl)-2,3,9-trimethyl-6H-thieno[3,2-f][1,2,4]triazolo[4,3-a][1,4]diazepin-6-yl)acetyl)piperidine-4-carboxamido)prop-1-yn-1-yl)benzoate hydrochloride] | +++ (the degrading capacity was reduced by 70% or more)
